This is an account of results in a melting point compilation (Tetko et al.; mined from patent text by program, amines drawn as free bases though some values may be those of a salt).

SMILES strings stand for the structures.

One may read the melting point as the temperature of the solid-liquid transition.

With `O=[N+]([O-])c1ccc(NS(=O)(=O)C(F)(F)F)c(Oc2ccc3ccccc3c2)c1`, the melting point was in the range of 117 to 120 °C.

Consider `CC(C)N(C[C@H](O)[C@H](Cc1ccccc1)NC(=O)[C@H](CC(N)=O)NCc1ccccn1)NC(=O)OC(C)(C)C`, for which the melting point is 101 to 108 °C.

The molecule `OC(Cn1cncn1)(c1ccc(Cl)cc1)C1(n2cncn2)CC1` (stereo not drawn) gave a melting point of 208 °C.

With `CC(=O)Oc1ccccc1-c1nn2cc(-c3ccccc3)nc2s1`, the melting point came out at 177 °C.

`CCOC(=O)C(=CNC1CC1)C(=O)c1cc(F)c(N2CCC(NC(C)=O)C2)nc1Cl` (stereo not drawn) gave a melting point of 71 to 75 °C.

`COC(=O)c1ccc(C#CC(=O)c2ccc3c(c2)C(C)(C)CCC3(C)C)cc1`: the melting point fell in the range of 113 to 114 °C.

Consider `COc1ccc(CCOc2cncc(Cl)c2)cc1OC`, for which the melting point lay within 101 to 102 °C.

As to `CCc1cn(C2CC(O)C(COC(c3ccccc3)(c3ccccc3)c3ccccc3)O2)c(=O)[nH]c1=O` (stereo not drawn), the melting point was 168 to 172 °C.

`O=C(O)[C@H](Cc1ccccc1)Nc1c(NC(c2ccccc2)c2ccccc2)c(=O)c1=O` showed a melting point of 187 to 188 °C.

In turn, `COC(=O)c1c(C)c(OC)cc(O)c1C=O` returned a melting point of 118 to 119 °C.

In the case of `N#Cc1ccc(OCC(O)CCCl)cc1` (stereo not drawn), the melting point fell in the range of 78 to 80 °C.

The molecule `Cc1cc(C(=N)NO)cc(C)c1OCCCc1ccco1` gave a melting point of 100 to 101 °C.

Take `COc1cccc(SCCC(=O)O)c1F`: the melting point is 72 to 74 °C.

Take `Cc1cccc(NC(=O)NC2CC(c3ccccc3)c3ccccc3N(CC(=O)NC(C)(C)C)C2=O)c1` (stereo not drawn): the melting point fell in the range of 263 to 266 °C.

In the case of `COCOc1ccc(C(=O)Cn2c(-c3nonc3N)nc3ccccc32)cc1OC`, the melting point is 190 °C.

Molecule `O=P(O)(O)C(F)(F)c1ccc(CNCc2ccc(C(F)(F)P(=O)(O)O)cc2)cc1` registered a melting point of 106 to 108 °C.

The molecule `Nc1ccc(NCCO)c(C(F)(F)F)c1` yielded a melting point of 74 to 75 °C.

`CCOC(=O)c1sccc1S(N)(=O)=O` returned a melting point of 136 °C.

As for `COc1ccc([C@@H]2CCCC[C@@H]2[N+](=O)[O-])cc1OC` (racemic), the melting point lay within 84 to 86.5 °C.

`CC(C(=O)O)c1ccc(-n2cc(Cl)cn2)c(Cl)c1` (stereo not drawn) had a melting point of 102 to 103 °C.

The molecule `CCOC(=O)CCNC(=O)C(Cc1ccc(-c2ccccc2)cc1)N(CP(=O)(O)O)C(OC(=O)Cc1ccccc1)C(C)C` (stereo not drawn) yielded a melting point of 148 to 150 °C.

As for `CCN1Cc2cccnc2N(c2cccc(C(F)(F)F)c2)C1=O`, the melting point lay within 155 to 157 °C.

Take `C=C(C)C(=O)Oc1ccc(CNS(C)(=O)=O)cc1`: the melting point is 101 to 102 °C.

`COc1ccc(-c2cc(C(=O)O)c(=O)n(CCCc3ccc(F)cc3)n2)cc1F` gave a melting point of 185 to 187 °C.

As to `COc1ccc(C(=O)Nc2ccccc2)cc1NCc1ccc(C(C)(C)C)cc1`, the melting point fell in the range of 195 to 197 °C.

Regarding `CC(C)c1nccn1N=Cc1ccccc1`, the melting point lay in the range of 65 to 66 °C.

Regarding `Oc1c(C(=S)NCc2ccc(Cl)cc2)cnc2ccc(CN3CCOCC3)cc12`, the melting point is 215 to 216 °C.

`COC(=O)[C@H](c1ccccc1Cl)N1CCc2sc(OC(=O)C=Cc3ccccc3)cc2C1`: the melting point was in the range of 122 to 124 °C.

The molecule `CCOC(=O)c1nsc(Br)c1O` came in with a melting point of 44 to 47 °C.

On to `Cc1cc(Cl)c2c(c1)C=C(/C=C/C=C/C=C/C(=O)O)CO2`, for which the melting point fell in the range of 248 to 250 °C.

As for `c1ccc(COc2cccc3c2nc2n3CCCO2)cc1`, the melting point was 183 to 184 °C.

`O=C1N(Cc2ccc(Cl)s2)c2ccccc2C12COc1ccc(Br)cc12` (stereo not drawn) showed a melting point of 140 to 142 °C.

On to `COc1cc2nc(N)nc(-c3ccc(Cl)cc3)c2cc1OC`, for which the melting point lay within 248 to 250 °C.

The molecule `N#Cc1ccc(C=Cc2ccccn2)cc1` yielded a melting point of 98 °C.

Take `O=C(O)c1cc(F)ccc1S`: the melting point was determined as 185 °C.

In turn, `CCCCCCCCCCOc1ccc(C(=O)c2cccc(C(=O)O)c2)cc1Cc1nnn[nH]1` showed a melting point of 147 to 150 °C.

For the molecule `Clc1nc(C(Cl)Cl)c(Cl)s1`, the melting point lay in the range of 42 to 44 °C.

Take `CNC(=O)c1[nH]c2ccccc2c1Sc1ccccc1`: the melting point is 201 to 204 °C.

On to `Cc1nc(C)c(-c2[nH]nc3c2C(=O)c2c(NC(=O)NN4CCN(C)CC4)cccc2-3)s1`, for which the melting point was 278 °C.

In turn, `CCC(OC(C)=O)c1ccc(Cl)c2nc3n(c12)CCCN3c1ccc(OC)cc1Cl` (stereo not drawn) yielded a melting point of 178 to 180 °C.

In turn, `CCCOc1ccccc1-c1nc2nc(NCCO)ncc2c(=O)[nH]1` came in with a melting point of 204 to 206 °C.

Regarding `COc1cccc([C@H]2O[C@H](CC(=O)Nc3cc(Cl)cc4cc(C(=O)O)oc34)C(=O)N(CC(C)(C)CO)c3ccc(Cl)cc32)c1OC`, the melting point lay within 179 to 180 °C.

Molecule `Cn1c(C(=O)OCc2cc(C(F)(F)F)cc(C(F)(F)F)c2)c(-c2ccccc2)c2ccccc2c1=O` displayed a melting point of 153 to 154 °C.

Take `CC(c1oc2ccccc2c(=O)c1-c1cccc(F)c1)n1nc(-c2csc(CO)c2)c2c(N)ncnc21` (stereo not drawn): the melting point fell in the range of 154 to 156 °C.

As to `Cc1oc(-c2ccccc2)nc1CCc1ccc(CO)cc1`, the melting point is 103 to 104 °C.

For `COc1cc(Nc2nccc(-c3ccc(OCc4ccccc4)cc3)n2)cc(OC)c1OC`, the melting point was 171 to 172 °C.

`COc1cc(OC(CCc2ccc(Cl)cc2)Cn2ccnc2)ccc1NC(C)=O` (stereo not drawn) yielded a melting point of 175 to 178 °C.

On to `c1ccc(N2CCOCC2)c(N=C2NCCN2)c1`, for which the melting point was in the range of 185 to 186 °C.

`CN(c1cc2ccccc2s1)c1nc(=O)c2cccnc2s1` yielded a melting point of 220 to 221 °C.

Regarding `CN(C)c1ccc(C(=O)c2ccncc2)cc1`, the melting point was in the range of 122 to 124 °C.

In turn, `O=C(O)CC1(CCCCCCCCCCC2(C(=O)O)CC2)CCC1` returned a melting point of 62 to 63.9 °C.

Take `CC(=O)c1c(-c2ccncc2)[nH]c(-c2ccncc2)c1C(F)(F)F`: the melting point lay in the range of 250 to 255 °C.

`CC(=O)Nc1cc(-c2ccncn2)c[nH]c1=O` registered a melting point greater than 250 °C.

Turning to `CN(C)S(=O)(=O)c1ccc2c(c1)S(=O)(=O)NC1CCCN21` (stereo not drawn), the melting point lay within 240 to 243 °C.

Molecule `CCOC(=O)C1(C(=O)OCC)N(Cc2ccc(OC)cc2OC)C(=O)CC1(C)O` (stereo not drawn) yielded a melting point of 106 to 107 °C.

`O=C(Nc1cccc(O)c1)C(CS)C(F)(F)F` (stereo not drawn) yielded a melting point of 147 to 151 °C.

On to `N#Cc1nn(-c2c(Cl)cc(OC(F)(F)F)cc2Cl)c(N)c1I`, for which the melting point amounted to 150 °C.

Take `CC1CCN(C(=O)c2ccc3nonc3c2)CC1`: the melting point lay in the range of 86 to 87 °C.

`Cc1cccc(-c2cccc(OC3SCC(O)C(O)C3O)c2)n1` (stereo not drawn) gave a melting point of 143 °C.

Molecule `O=S(=O)(c1cccs1)N(c1cccc2cc(C3=NCC(CN4CCOCC4)S3)[nH]c12)C(F)F` (stereo not drawn) returned a melting point of 185 to 186 °C.

`CN(C)C1CCC(c2c[nH]c3ccc(NC(=N)c4cccs4)cc23)CC1` (stereo not drawn) showed a melting point of 104 to 106 °C.

In turn, `CCOC(=O)Cc1c(C(=O)OCC)[nH]c2ccccc12` showed a melting point of 75 to 78 °C.

For the molecule `CC(C)c1ccc2oc(=O)c(NC(=O)Nc3ccc(F)cc3F)c(-c3ccc(F)cc3)c2c1`, the melting point lay in the range of 216 to 217 °C.

`CN1CC2Cc3cc4c(cc3C(c3ccc([N+](=O)[O-])cc3)=NN2C1=O)OCO4` (stereo not drawn) showed a melting point of 252 to 255 °C.

Regarding `Nc1cccc(C=C2NC(=O)NC2=O)c1`, the melting point fell in the range of 280 to 284 °C.

As for `CCc1cc(C)c2c(C3CCCCC3)cc(=O)n(CC)c2n1`, the melting point fell in the range of 79 to 80 °C.

For the molecule `Cc1oc(-c2ccccc2)nc1COc1cc(COc2nn(C)cc2CC(=O)O)ccn1`, the melting point fell in the range of 126 to 127 °C.

Molecule `CCOC(=O)c1c(CCl)nc2cc(OC)c(OC)cc2c1-c1ccc(Cl)cc1` yielded a melting point of 153 to 154 °C.

`CCCc1cn(C)c2c(=O)[nH]c(-c3cc(S(=O)(=O)N4CCN(CCOC(C)=O)CC4)ccc3OCC)nc12` registered a melting point of 192 °C.

`C[C@@H]1Cc2ccsc2[C@H](c2ccccc2)N1CCNS(=O)(=O)c1ccc(NS(C)(=O)=O)cc1` (relative stereo) returned a melting point of 155 to 158 °C.

For `CCCN(Cc1ccc(C(=O)NC2Cc3ccccc3C2)cc1)C1CCc2ncsc2C1` (stereo not drawn), the melting point came to 65 °C.

In the case of `Cc1c2c(c(C)n1CCCN(C)C)C(C)(C#N)CC2(C)C` (stereo not drawn), the melting point lay in the range of 90.5 to 91 °C.

`CN(c1ccc(OCc2ccc(OC(F)(F)F)cc2)cc1)C1CCN(c2ccc(OC[C@H]3CCn4cc([N+](=O)[O-])nc4O3)cc2)CC1`: the melting point fell in the range of 142 to 144 °C.

With `CC(C)(C)NS(=O)(=O)c1ccc([N+](=O)[O-])cc1`, the melting point lay within 105 to 109 °C.

The molecule `Cc1c(Cl)c(Cl)c(SC(F)(F)F)c(Cl)c1Cl` returned a melting point of 49.5 to 50.5 °C.

Take `O=C(O)c1cn(C2CC2)c2nc(-c3cc4c(s3)CCC/C4=N\O)c(F)cc2c1=O`: the melting point was greater than 300 °C.

Consider `CCCCOc1cc(CCC(=O)O)n(Cc2ccc(Cl)cc2Cl)n1`, for which the melting point fell in the range of 123 to 124 °C.

Consider `CCc1cn(C2CC(O)(c3ccc(C)cc3)C(C(O)c3ccc(C)cc3)O2)c(=O)[nH]c1=O` (stereo not drawn), for which the melting point is 192 to 194 °C.

On to `C=C(F)C(=O)Oc1c(Cl)cc(C#N)cc1Cl`, for which the melting point fell in the range of 95 to 99 °C.

On to `O=c1cc(-c2ccncc2)nc(-c2cccnc2)[nH]1`, for which the melting point is greater than 300 °C.

Molecule `O=[N+]([O-])c1cccc2c1nnn2C1CCCC(Cl)C1Cl` (stereo not drawn) registered a melting point of 145 to 148 °C.

Turning to `Cn1cc(C(=O)C(=O)N2CCN(c3nc4cc(C(=O)Nc5nc(C(C)(C)C)cs5)ccn4c(=O)c3/C=C/C(=O)O)CC2)nc1N`, the melting point was 210 to 216 °C.

For the molecule `CC(C)c1ccc(S(=O)(=O)Nc2nc(-c3cccc([N+](=O)[O-])c3)cs2)nc1`, the melting point was in the range of 208 to 210 °C.

In turn, `Cc1ccc(-n2c(=O)nc(N(C)C)n(C)c2=O)cc1C` registered a melting point of 189 to 191 °C.

With `CCOC(=O)c1cccc2nc(CC)n(Cc3ccc(-c4ccccc4C(=O)C(=O)OC)cc3)c12`, the melting point lay in the range of 118 to 119 °C.

For `COC(=O)c1cc(CBr)cc(CBr)c1`, the melting point was 64 to 70 °C.

`CC(C)(C)CC(=O)N[C@H]1CC[C@H](CCN2CCN(c3nccc4c3CCO4)CC2)CC1`: the melting point was found to be 192 °C.

`CNC(=O)c1cc(N2CCCC2)cc(C)c1C(N)=O` registered a melting point of 160 °C.
